One block for each compound: values may come before it.
Tested on: 565232-114-T-J1-PDC complex spheroid viability
Experiment: Anticancer human tumor 565232-114-T-J1-PDC patient-derived bladder carcinoma cell line growth inhibition [CLK]
Conditions: for IC50: curve of first compound; for viability, T/C: stronger effect = lower value
Method in brief: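 Multi-cell-type spheroids combined patient-derived tumor cells with HUVEC endothelial cells and human mesenchymal stem cells. Paired agents were dosed in half-log steps down from about clinical Cmax, or from 10 microM where Cmax was unknown.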

[1] = second compound 0.0316 µM, first compound 0.0316 µM
[2] = second compound 0.0316 µM, first compound 0.1 µM
[3] = second compound 0.0316 µM, first compound 0.316 µM
[4] = second compound 0.0316 µM, first compound 1 µM
[5] = second compound 0.0316 µM, first compound 3.16 µM
[6] = second compound 0.0316 µM, first compound 10 µM
[7] = second compound 0.1 µM, first compound 0.0316 µM
[8] = second compound 0.1 µM, first compound 0.1 µM
[9] = second compound 0.1 µM, first compound 0.316 µM
[10] = second compound 0.1 µM, first compound 1 µM
[11] = second compound 0.1 µM, first compound 3.16 µM
[12] = second compound 0.1 µM, first compound 10 µM
[13] = second compound 0.316 µM, first compound 0.0316 µM
[14] = second compound 0.316 µM, first compound 0.1 µM
[15] = second compound 0.316 µM, first compound 0.316 µM
[16] = second compound 0.316 µM, first compound 1 µM
[17] = second compound 0.316 µM, first compound 3.16 µM
[18] = second compound 0.316 µM, first compound 10 µM
[19] = second compound 1 µM, first compound 0.0316 µM
[20] = second compound 1 µM, first compound 0.1 µM
[21] = second compound 1 µM, first compound 0.316 µM
[22] = second compound 1 µM, first compound 1 µM
[23] = second compound 1 µM, first compound 3.16 µM
[24] = second compound 1 µM, first compound 10 µM
[25] = second compound 3.16 µM, first compound 0.0316 µM
[26] = second compound 3.16 µM, first compound 0.1 µM
[27] = second compound 3.16 µM, first compound 0.316 µM
[28] = second compound 3.16 µM, first compound 1 µM
[29] = second compound 3.16 µM, first compound 3.16 µM
[30] = second compound 3.16 µM, first compound 10 µM
[31] = second compound 10 µM, first compound 0.0316 µM
[32] = second compound 10 µM, first compound 0.1 µM
[33] = second compound 10 µM, first compound 0.316 µM
[34] = second compound 10 µM, first compound 1 µM
[35] = second compound 10 µM, first compound 3.16 µM
[36] = second compound 10 µM, first compound 10 µM
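Further: spheroids exposed to compounds for 7 days before readout.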
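Wherever viability, T/C is given: 100% = DMSO vehicle wells with luminescence normalized to vehicle control.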

IC50 (second compound 0.0316 µM): > 10000 nM
IC50 (second compound 0.1 µM): < 31.6 nM
IC50 (second compound 0.316 µM): < 31.6 nM
IC50 (second compound 1 µM): < 31.6 nM
IC50 (second compound 3.16 µM): < 31.6 nM
IC50 (second compound 10 µM): < 31.6 nM
Structure (SMILES): C#Cc1c(F)ccc2cc(O)cc(-c3ncc4c(N5CC6CCC(C5)N6)nc(OCC56CCCN5CC(F)C6)nc4c3F)c12 (centres undefined) + CNC(=O)c1ccc(Nc2nc(OC3CCCC3)c3c(-c4ccc5nc(C)oc5c4)c[nH]c3n2)c(OC)c1
viability, T/C [1]: 78.9%
viability, T/C [2]: 67.7%
viability, T/C [3]: 95.5%
viability, T/C [4]: 75.6%
viability, T/C [5]: 119%
viability, T/C [6]: 89.6%
viability, T/C [7]: 49.6%
viability, T/C [8]: 46.9%
viability, T/C [9]: 45.9%
viability, T/C [10]: 53.2%
viability, T/C [11]: 51.5%
viability, T/C [12]: 44.2%
viability, T/C [13]: 33.3%
viability, T/C [14]: 31.7%
viability, T/C [15]: 28.9%
viability, T/C [16]: 28.1%
viability, T/C [17]: 31.5%
viability, T/C [18]: 23%
viability, T/C [19]: 25.8%
viability, T/C [20]: 25.6%
viability, T/C [21]: 22.3%
viability, T/C [22]: 17.4%
viability, T/C [23]: 21.5%
viability, T/C [24]: 17.3%
viability, T/C [25]: 18.6%
viability, T/C [26]: 16.2%
viability, T/C [27]: 18.8%
viability, T/C [28]: 16.4%
viability, T/C [29]: 16.4%
viability, T/C [30]: 11.6%
viability, T/C [31]: 18.6%
viability, T/C [32]: 17.3%
viability, T/C [33]: 12.3%
viability, T/C [34]: 14.8%
viability, T/C [35]: 19.7%
viability, T/C [36]: 9.9%

IC50 (second compound 0.0316 µM): 5870 nM
IC50 (second compound 0.1 µM): 3910 nM
IC50 (second compound 0.316 µM): < 31.6 nM
IC50 (second compound 1 µM): < 31.6 nM
IC50 (second compound 3.16 µM): < 31.6 nM
IC50 (second compound 10 µM): < 31.6 nM
Structure (SMILES): C=C(F)C(=O)N1CCN(c2nc(OCC3CCCN3C)nc3c2CCN(c2cccc4cccc(Cl)c24)C3)CC1CC#N (centres undefined) + CNC(=O)c1ccc(Nc2nc(OC3CCCC3)c3c(-c4ccc5nc(C)oc5c4)c[nH]c3n2)c(OC)c1
viability, T/C [1]: 116%
viability, T/C [2]: 79.8%
viability, T/C [3]: 116%
viability, T/C [4]: 101%
viability, T/C [5]: 127%
viability, T/C [6]: 0.2%
viability, T/C [7]: 57.3%
viability, T/C [8]: 58.6%
viability, T/C [9]: 53.5%
viability, T/C [10]: 68.6%
viability, T/C [11]: 68.4%
viability, T/C [12]: 0.17%
viability, T/C [13]: 35.9%
viability, T/C [14]: 33.5%
viability, T/C [15]: 34.2%
viability, T/C [16]: 28.8%
viability, T/C [17]: 37.1%
viability, T/C [18]: 0.14%
viability, T/C [19]: 20.6%
viability, T/C [20]: 26.6%
viability, T/C [21]: 29.4%
viability, T/C [22]: 22.3%
viability, T/C [23]: 22.9%
viability, T/C [24]: 0.13%
viability, T/C [25]: 16.9%
viability, T/C [26]: 19.2%
viability, T/C [27]: 17.3%
viability, T/C [28]: 17.1%
viability, T/C [29]: 17.4%
viability, T/C [30]: 0.17%
viability, T/C [31]: 17.4%
viability, T/C [32]: 18.9%
viability, T/C [33]: 16.9%
viability, T/C [34]: 16.4%
viability, T/C [35]: 18.4%
viability, T/C [36]: 0.23%
